Results as given in US20260224557A1, “NRF2 ACTIVATOR” (Ivy Cosmetics Co., Ltd., priority 2023, published 2026).

System: Nrf2
Test: ARE (Antioxidant Response Element)-luciferase reporter assay in ARE-luciferase reporter-stably-expressing HaCaT cell line
Assay type: cell-based
Settings: HaCaT ARE-luciferase reporter cells, 24 hours
Method: The Nrf2-activating action of conophylline (crystal) which was isolated and purified from Ervatamia microphylla, which is a plant of the Apocynaceae, by the method described in JP4696303B was evaluated by ARE (Antioxidant Response Element)-luciferase reporter assay, which is known as a monitoring system for the Nrf2 antioxidant pathway. Specifically, a plasmid was obtained by inserting a polynucleotide having a sequence in which ARE sequence was repeated twice ([…]: SEQ ID NO: 1) into the multiple cloning site of pNL2.2 [NlucP/Hygro] Vector (Promega Corporation), which is a vector for luciferase reporter assay, and the plasmid was introduced into HaCaT cells (DKFZ) using Cell Line Nucleofector Kit V (Lonza) by electroporation. After 24 hours, by adding hygromycin at a final concentration of 600 μg/mL and selecting drug-resistant cells, an ARE-luciferase reporter-stably-expressing HaCaT cell line having hygromycin resistance was established. […] After 24 hours, the luciferase activities were measured using Nano-Glo Luciferase Assay System (Promega Corporation) according to the protocol, and thus the Nrf2-activating action of conophylline was evaluated.

Row | SMILES | luciferase activity when Nrf2 inhibitor ML-385 was added together with conophylline (ML-385 20 μM added together with conophylline 1 μg/mL) | luciferase activity (Nrf2-activating action), relative to DMSO control regarded as 1 (conophylline at various final concentrations, FIG. 1)
1 | Cc1ccccc1C(=O)N1CCc2cc(-c3nc(NC(=O)Cc4ccc5c(c4)OCO5)sc3C)ccc21 [ML-385] | decreased considerably | 
2 | CC[C@@]12CC(C(=O)OC)=C3Nc4cc5c(cc4[C@@]34CCN(C[C@H]3O[C@H]31)[C@@H]24)[C@@H]1[C@H](O5)[C@@H](O)[C@@]2(CC)CC(C(=O)OC)=C3Nc4c(cc(O)c(OC)c4OC)[C@@]34CCN1[C@@H]24 [conophylline] |  | enhanced the luciferase activity in a concentration-dependent manner
